# From patent US20240141294A1, “CGMP COMPLIANT PRODUCTION AND EXPANSION OF PLASMACYTOID DENDRITIC CELLS FROM HEMATOPOIETIC STEM AND PROGENITOR CELLS” (AARHUS UNIVERSITET, priority 2021, published 2024)
# Tests used:
# CD34+ HSPCs = assay: HSPC expansion and HSPC-pDC differentiation culture (cell numbers, viability, HSPC-pDC yield); assay type: cell-based, human
# Description: Depending on optimization regiments, freshly or cryo-preserved HSPCs from various sources were differentiated to HSPC-pDCs using different types of medium. For STD and LD/RPMI conditions, HSPCs were cultured in RPMI 1640 (Lonza) supplemented with 10% heat-inactivated fetal calf serum (FCS) (HyClone®), 600 μg/mL L-Glutamine (Sigma), 200 U/mL penicillin and 100 μg/mL streptomycin (Gibco®, Life Technologies). For STD conditions, HSPCs were cultured at a fixed volume during pDC differentiation, versus a fixed density of 0.5-5×10^6 cells/mL for the LD condition. For serum-free (SFEM II) or CGMP serum-free medium (DC medium) conditions, HSPCs were cultured in SFEM II or DC medium at low density (0.5-5×10^6 cells/mL). […] All cytokines are from Peprotech. In addition, the small molecule inhibitor StemRegenin 1 (SR1, […] Technologies) was added at a concentration of 1 μM. For serum-free medium conditions, a concentration of 20 μg/mL streptomycin and 20 U/mL penicillin (Gibco, Life Technologies) was added. Moreover, for the CGMP DC medium condition, 50 μg/mL of ascorbic acid was added. Cells were cultured at 37° C., 95% humidity, and 5% CO2 for up to 21 days depending on optimizations. For the fixed density conditions, medium was replenished every 2-4 day depending on the growth of the HSPCs. Total cell numbers during expansion and differentiation of HSPCs was determined using a TC20 Automated Cell Counter (Bio-Rad). At the end of culture, HSPC-pDCs were enriched using a negative selection kit, according to manufacturer's instructions (EasySep Human Plasmacytoid Dendritic Cell Enrichment kit, […] Technologies).
# De-identified umbilical cord blood (UCB) samples were obtained following scheduled caesarean section deliveries of healthy infants at Department of Gynecology and Obstetrics, Skejby University Hospital. Consent was obtained from the mothers. CD34^+ cord blood HSPCs (CB-HSPC) were subsequently purified using EasySep Human Cord Blood CD34 Positive Selection kit II, according to manufacturer's instructions ([…] Technologies). Briefly, a pre-enrichment of CD34+ cells was performed were bi-specific antibodies targeting unwanted cells were used during standard Ficoll-Hypaque (GE Healthcare) density-gradient centrifugation. CD34+ cells were subsequently isolated using anti-CD34 immunomagnetic beads (positive selection). CD34^+ CB HSPCs were either freshly used or cryo-preserved until use.
# HSPC-pDCs = assay: TLR7 or TLR9 agonist activation, functional type I IFN (HEK-blue IFN-α/β reporter); assay type: cell-based, human
# Description: Priming of HSPC-pDCs was performed as previously described. Isolated HSPC-pDCs were primed in the same medium as the differentiation was done in (either RPMI 1640, SFEM II or DC medium). […] For HSPC-pDCs differentiated in DC medium, medium was also supplemented with 50 μg/mL ascorbic acid. Cells were primed for three days before being phenotypically or functionally characterized.
# To analyze the capacity of HSPC-pDCs to produce type I IFN, 4×10^4 pDCs were seeded out in 96-well plates in the same medium as the differentiation was done in (either RPMI 1640, SFEM II or DC medium). […] Cells were subsequently stimulated with agonists directed against TLR7 (R837, tlrl-imq, InvivoGen) or TLR9 (CpG-A 2216, tlrl-2216-1, InvivoGen) at a final concentration of 2.5 μg/mL. Twenty hours post stimulation supernatants were harvested and cryopreserved at −20° C. until analysis.
# To quantify functional type I IFN, the reporter cell line HEK-blue IFN-α/β was utilized, according to the manufacturer's instructions (InvivoGen). […] Activity of SEAP was assessed using QUANTI-Blue (InvivoGen). Color change was measured at an optical density (OD) of 620 nm using the SpectraMax iD3 platereader (Molecular Devices). […]
structure (smiles),measurement,setting,value
O=C1O[C@H]([C@@H](O)CO)C(O)=C1O [ascorbic acid],viability of HSPC-pDCs isolated at day 21,CD34+ HSPCs; AA addition versus 72.8%±3.2% for DC medium alone,92.0%
same,percentage of HSPC-pDCs of the total population of cells,CD34+ HSPCs; AA supplementation of DC medium,without affecting
same,yield of HSPC-pDCs isolated at day 21,CD34+ HSPCs; DC medium+AA versus 0.5×10^9+0.3×10^9 for DC medium alone,1.0×10^9 HSPC-pDCs per 0.1×10^6 CD34+ H
same,expansion during HSPC-pDC differentiation,"CD34+ HSPCs; DC medium+AA versus 13,456 fold (±6,953) for DC medium alone, 1×10^5 HSPCs seeded","33,554 fold"
same,viability of expanding HSPCs during culture,"CD34+ HSPCs; DC medium+AA vs DC medium alone, in particular Day 12+",significantly improved
same,type I IFN response to synthetic TLR7 and TLR9 agonists,"HSPC-pDCs; HSPC-pDCs from AA culture, isolated day 16 and 21, in contrast to DC medium alone",robust type I IFN response
same,cHSPC-pDC TLR7 and TLR9-mediated type I IFN production,"HSPC-pDCs; cHSPC-pDCs from peripheral blood cHSPCs, SFEM II, DC medium or DC medium+AA",required
